Measurements reported in patent publication US20120244208A1, “COSMETIC SKIN CARE METHODS AND COMPOSITIONS” (priority 2009, published 2012).

Key:
[1] = system: Normal human dermal fibroblasts (NHDFs) seeded on collagen type 1 gels; test: Fibroblast-seeded collagen gel contraction; type: cell-based; conditions: for % of original size (mean): 0.1 mg/ml lactoferrin, 0.1 mg/ml ICI 118 551, 1.0 mg/ml Isoproterenol, 3.5×10^4 cells per well
Description: Normal human dermal fibroblasts (NHDFs) were obtained by tissue donation following circumcision following patient informed consent. The tissue was rinsed in Phosphate Buffered Saline (PBS) and Pen/Strep and Amphotericin B (Pen/strep) at 10 ug/ml. The tissue was then minced to 1 mm2 sections and suspended in Trypsin-EDTA 1:250 at room temperature (RT) for 1 hr. The tissue was then washed twice by centrifugation at 2500 g for 3min in serum supplemented DMEM/F12. A single cell suspension was created using mechanical disaggregation. The cells were counted using a haemocytometer and cultured at 1×10^6 cells per T75 tissue culture flask in DMEM/F12 containing 10% Fetal Bovine Serum (FBS) and 10 ug/ml Pen/strep. Incubators were kept at 37° C. and 5% CO2. Medium was changed every 3-4 days and cells were used from the 4th passage in vitro.
Collagen gels were formed. A solution of collagen, consisting of 2 mg/ml type 1 bovine collagen from bovine Achilles tendon in 0.5M acetic acid, was made. This made up 80% of the gel. Another 10% was made up of 10×PBS and the remaining volume was made up of FBS. The pH of the entire solution was adjusted to 7.4 using NaOH. 400 μl of the solution was placed into each well of a 24 well plate. The gels were set at 37° C. for 1 hr. After ensuring that the gels were set properly, they were detached from the sides of the wells and exposed to 1 ml fully supplemented DMEM/F12 overnight to acclimatize. The complete gels were seeded with 3.5×10^4 cells per well and the test compounds were added at this point. The test compound were added as follows: 0.1 mg/ml lactoferrin, 0.1 mg/ml ICI 118 551, 1.0 mg/ml Isoproterenol. A cell only and no cell control were also incuded.
Photographs were taken from the same distance at 0, 3, 6, 12 and 24 hrs of exposure using a Canon Powershot A640 10MP camera. The photos were transferred to CorelDRAW X3 and the inside diameter of the well as well as the outer edge of the gel were measured using the circle tool. […] These two diameters were then converted to a percentage of the well diameter by the formula geloutside/wellinside×100=gelrelative. This value was then worked out the same way for each gel at every time period. The time period Ohrs taken to be 100% of gel size and each time period after that was compared to it as a relative percentage. The standard deviation was calculated based on the original relative percentage to the well.

[2] = system: Normal human dermal fibroblasts (NHDFs) seeded on collagen type 1 gels; test: Fibroblast-seeded collagen gel contraction; type: cell-based
NHDFs = test: Viability monitored visually for 6 days; type: cell-based, human
Description: Cytotoxicity was measured using the MTT assay on NHDFs. Human dermal cells were used as it approximates the intended use. No cytotoxicity was found. […] All other cells maintained their viability over the six day period.

fibroblasts = conditions: concentration of 1 microM; cited from earlier work
[3] = 0 hrs (taken to be 100% of gel size)

Row | Molecule | % of original size (mean) [1, 3] [%] | % of original size (mean) ([1]; 3 hrs) [%] | % of original size (mean) ([1]; 6 hrs) [%] | % of original size (mean) ([1]; 12 hrs) [%] | % of original size (mean) ([1]; 24 hrs) [%] | rate of gel contraction compared with Lactoferrin and cells only controls ([1]; over 24 hrs) | ideal concentration for gel contraction ([2]; dose response 0.01 mg/ml to 0.2 mg/ml, gel containing 3.5×10^4 cells) [mg/mL] | activity at lower concentrations (gel contraction) ([2]; dose response from 0.01 mg/ml, concentrations lower than 0.1 mg/ml) | effect of higher concentrations on rate of contraction ([2]; dose response up to 0.2 mg/ml, concentrations higher than 0.1 mg/ml) | return of gels to original dimensions ([2]; monitored for a further 3 days) | viability monitored visually (NHDFs) | collagen gel contraction by fibroblasts relative to control (fibroblasts)
1 | Cc1ccc(OCC(O)C(C)NC(C)C)c2c1CCC2 (racemic) [ICI 118 551, erythro-dl-1-(7-methylindan-4-yloxy)-3-isopropylaminobutan-2-ol] | 100 | 66.04 | 53.8 | 51.33 | 51.86 | contract the gels at a higher rate | 0.1 | not be significantly active | did not seem to increase the rate of contraction significantly | did not return to their original dimensions |  | 
2 | CC(C)NCC(O)c1ccc(O)c(O)c1 (centres unmarked) [Isoproterenol] | 100 | 100.8622 | 79.6766 | 82.7588 | 83.79 |  |  |  |  |  | started to lose viability | 
3 | YTRVVWXA: peptide with the amino acid sequence YTRVVWXA (a fragment from Lactoferrin) |  |  |  |  |  |  |  |  |  |  |  | about three times control
